These results are taken from a melting point compilation (Tetko et al.; mined from patent text by program, amines drawn as free bases though some values may be those of a salt).

As a reminder, the melting point is the temperature, or range, at which the solid turns liquid.

For `COCOc1cc(OC)ccc1C(=O)c1cccc(OCc2nc(-c3ccccc3)oc2C)c1`, the melting point lay in the range of 117 to 118 °C.

`CCC(C)(C)OC(=O)NC(C)(Cc1c[nH]c2ccccc12)C(=O)NC(Cc1cccs1)C(N)=O` (stereo unspecified) gave a melting point of 187 to 192 °C. For `CC1(C)CCC(C)(C)c2nc(C(=O)CBr)cnc21`, the melting point was over 300 °C. Regarding `Cc1nc(-n2ccc(OCc3ccc(C(F)(F)F)o3)cc2=O)sc1C(=O)O`, the melting point is 261 to 263 °C. On to `Clc1nc(Cl)c2ncn(C3CC3)c2n1`, for which the melting point lay within 121 to 124 °C. Then `CC1(C)CCC(C)(C)c2cc(C(=O)CNc3ccc(C(=O)O)cc3)ccc21`, with 168 to 169 °C. Turning to `CC(Cc1c[nH]c2ccccc12)(NC(=O)OC1C2CC3CC(C2)CC1C3)C(=O)NCC(NC(=O)C1CC1C(=O)O)c1ccccc1` (stereo unspecified), the melting point lay in the range of 138 to 142 °C. Then `CCCCCc1cnc(-c2ccc(-c3ccc(Br)cc3)cc2)nc1`, with 137 °C; and `CC(Oc1cccc2c(Oc3ccc(C(F)(F)F)cc3F)cccc12)C(=O)O` (stereo unspecified), with 166 °C; and `COc1cc(-c2ccccc2)c(OC)cc1Nc1ncnc2cc(OC)c(OC)cc12`, with 226 to 229 °C.

`CCCc1nc2c(N)nc3ccccc3c2n1OC` returned a melting point of 210 to 211 °C. Then `O=S(=O)(c1ccccc1)N1CCCC1c1ccc(F)cc1` (racemic), with 100 °C; and `CCCCS(=O)(=O)NCc1ccc(C(=O)CN2CCN(c3ccncc3)CC2)cc1`, with 101 to 103 °C. With `CC(C)(C)C1(C)C(=O)N=C2c3ccccc3C(=O)N21` (stereo unspecified), the melting point was in the range of 136 to 138 °C.

`CC1(C)CCOc2ccc(C3(C)C=CC=CC3C=O)cc21` (stereo unspecified) had a melting point of 85 to 86 °C.

`Cc1c(C#N)sc2nc(-c3ccccc3)nc(N3CCNCC3)c12`: the melting point lay in the range of 251 to 253 °C.

`O=C(OCC1OC(OC(=O)c2ccccc2)C(O)C1OC(=O)c1ccccc1)c1ccccc1` (stereo unspecified) had a melting point of 137 to 138 °C. Then `CCOC(=O)C(=CN(C)C)C(=O)c1cc(F)c(Cl)cc1Cl`, with 94 to 95 °C; and `CC(C)=NOCC(C)OC(=O)COc1ccc(Cl)c2cccnc12` (stereo unspecified), with 102 °C. Regarding `NNC(=O)CCCCCCCCOC1OC(CO)C(O)C(O)C1O` (stereo unspecified), the melting point worked out at 194 °C. The compound `COc1cc(Nc2nc3cccc(-c4ccc(N)cc4)c3o2)cc(OC)c1OC` registered a melting point of 192 to 196 °C. Then `CCN(CC)CCNc1ccc(N2CCOC2=O)cc1[N+](=O)[O-]`, with 124 °C. Then `CCCCCCCCCCCCCCCCCCCC(=O)Nc1ccn(C2OC(CO)C(O)C2O)c(=O)n1` (stereo unspecified), with 138 to 142 °C; and `Cc1nc(N2CCc3ccccc3CC2)c(C#N)c(=O)n1CC1CC1`, with 119 to 122 °C. The compound `CCCCOc1cc(C(=O)NCC#N)cc(Cl)n1` gave a melting point of 72 to 73 °C. Then `CC(C)CCCc1c(-c2ccc(S(C)(=O)=O)cc2)cnn(-c2ccc(F)cc2)c1=O`, with 112 to 115 °C; and `CCn1c2c(c3ccccc3c1=O)C(=O)c1ccccc1-2`, with 188 to 189 °C; and `CCOCc1nc2c(N)nc3cc(-c4ccc(F)cc4)cnc3c2n1CC1(O)CCCC1`, with 212 °C. Then `CNc1nc(CSC)c(-c2ccncc2)s1`, with 135 to 138 °C; and `CC(=O)OCc1cc(O)c2c(c1)C(=O)c1cccc(C(C)=O)c1C2=O`, with 190 to 191 °C. `CCOC(=O)CN(N)C(=O)Nc1ccccc1C(=O)C1CCCCC1` returned a melting point of 108 to 110 °C.

In turn, `O=C1CCCC2=C1C(c1ccc(Cl)c(C(F)(F)F)c1)C1=C(CCS1)N2` (single isomer, unassigned; (+)) returned a melting point of over 250 °C. As to `CCCC(=O)NS(=O)(=O)c1ccc(C(=O)C=Cc2cc(-c3cc4ccccc4[nH]3)c(OC)cc2OC)cc1`, the melting point fell in the range of 155 to 165 °C.

Consider `O=C(NCCO)c1cccc(-c2ccc3ccn(Cc4ccc(Cl)cc4Cl)c3n2)c1`, for which the melting point lay in the range of 161 to 162 °C. Then `CCOCc1cc(COc2cc(CC)nc(C)c2OC)ccc1-c1ccccc1S(=O)(=O)Nc1noc(C)c1C`, with 64 to 72 °C; and `CC(=O)c1cccc(NC(=O)C2CCC2)c1`, with 155 to 157 °C; and `O=C1C2=C(CCCC2)C(=O)N1c1c(F)cc(Cl)c2c1CC(CO)O2` (stereo unspecified), with 193 to 195 °C.

`COC(=O)c1ccc2c(Br)cccc2c1` gave a melting point of 65 to 68 °C. Then `Cn1c(=O)[nH]c2cnc(-c3ccccc3)nc21`, with 286 to 289 °C; and `CC(CN1CC=C(c2cccs2)CC1)N(C(=O)C1CC=CCC1)c1ccccn1` (stereo unspecified), with 92 to 96 °C. The compound `Cc1cn(S(=O)(=O)c2ccccc2)c2ccccc12` gave a melting point of 116 to 120 °C.

As to `CN(C)C1(c2ccc(F)cc2)CCC(=CC(=O)N2CCC(c3c[nH]c4ccccc34)C2)CC1` (stereo unspecified), the melting point fell in the range of 109 to 112 °C. Then `CC(C)(C)NCC(O)COc1ccc2c(=O)cc(-c3cc(OCc4ccccc4)cc(OCc4ccccc4)c3)oc2c1` (stereo unspecified), with 170 to 171 °C. For the compound `CCOC(=O)c1ncn2c1CN=C(c1ccccc1)c1cc(Br)ccc1-2`, the melting point was in the range of 210 to 212 °C. Then `Nc1ncc(Br)cc1Cl`, with 94 to 96 °C; and `O=C(O)[C@H](Cc1ccccc1)C[C@@H](Cc1ccccc1)C(=O)N[C@@H](COCc1ccccc1)C(=O)O`, with 149 to 151 °C; and `CN1C(=O)C(=O)C(c2ccc(Cl)cc2)Sc2ccccc21` (stereo unspecified), with 124 to 126 °C.

`O=C1NC(=O)C(=Cc2ccc(N3CCC4(CC3)OCCO4)c(Br)c2)S1` had a melting point of 109 to 111 °C.

In turn, `CCOC(=O)c1ccc(-c2c(Cl)c(CN3C(=O)CCC3=O)nc3sc4c(c23)CCN(C(=O)OCc2ccccc2)C4)cc1` came in with a melting point of 198 to 199 °C. Then `CNC(=O)c1c(-c2ccccc2)oc(-c2ccccc2)cc1=O`, with 196 to 197 °C; and `COC(=O)Cc1nc(-c2ccccc2)c(-c2ccccc2)o1`, with 87 to 91 °C; and `CCCN(CCC)C(=O)Cn1c(-c2ccc(C(F)(F)F)cc2)nc2cccnc21`, with 138 to 139 °C. Consider `COc1cc2c(c3c1OC(C)(C)C3)C(c1cccc(-c3ccc(N)nc3)c1)=NC(C)(C)C2`, for which the melting point was 165 to 168 °C.

Turning to `COC(=O)COc1cccnc1`, the melting point was 174 °C. The compound `CCCNC(=N)NC(=O)NCc1ccccn1` yielded a melting point of 195 to 197 °C. `C[Si](C)(C)CC1=C[C@@H](c2ccccc2)[C@H]2C(=O)OC(=O)[C@H]2C1` (racemic) displayed a melting point of 126 °C. Then `CC(=O)SCCC(=O)N(C)c1nnc(-c2cccnc2)s1`, with 133 to 135 °C. Then `Cc1ccc(S(=O)(=O)Sc2cc(C)c(NC(=O)OC(C)(C)C)cc2C(C)(C)C)cc1`, with 106 to 108 °C; and `Fc1ccc(C=Cc2ccc(C3COC(c4c(F)cccc4F)=N3)cc2)cc1` (stereo unspecified), with 154 to 156 °C; and `O=[N+]([O-])c1ccc2c(c1)C(c1ccccc1F)=NCC(OP(=O)(N1CCOCC1)N1CCOCC1)=N2`, with 169 to 172 °C. Then `C=C(C)c1nc2cc3c(cc2[nH]1)NC(=O)C3(C)C`, with 270 to 273 °C; and `NC1=NCC(COc2cccc(Cl)c2)O1` (stereo unspecified), with 128 °C. `O=C1c2ccccc2C(=O)N1COc1ccncc1` returned a melting point of 129 to 131 °C.

For the compound `C[C@@H](n1cnc2c(cnn2-c2ccc(F)cc2)c1=O)[C@](O)(Cn1cncn1)c1ccc(F)cc1F`, the melting point lay within 217 to 218 °C. Then `CCOC(=O)N(c1ccccc1-n1nc(C(=O)O)nc1CCl)c1cccc(C)c1C`, with 188 to 190 °C; and `CCn1cc(C(=O)O)c(=O)c2ccc(N3CCNCC3)nc21`, with 272 to 273 °C; and `CC(=O)NC1C(OCc2ccccc2)OC(COCc2ccccc2)C(OCc2ccccc2)C1OCC(=O)O` (stereo unspecified), with 128 to 129 °C.

As for `CCN1CCc2ccc(Nc3ncc(Cl)c(NCCC(=O)NC)n3)cc2CC1`, the melting point turned out to be 206 °C. `O=C(CCCN1CCOCC1)Nc1cccc(-c2ccnc3c(C(=O)c4cccs4)cnn23)c1` returned a melting point of 127 to 133 °C. For the compound `CCCC1CCC(C2CCC3(CC2)C(=O)C2(CCC(C4CCC(CCC)CC4)CC2)C3=O)CC1` (stereo unspecified), the melting point came to 290 °C. The compound `O=[N+]([O-])c1cc(F)ccc1N1CCNCC1` came in with a melting point of 85 to 87 °C. Then `CCOC(=O)C(C(=O)OCC)C(=O)c1ccc2oc3ncccc3c(=O)c2c1`, with 137 to 138 °C. As to `O=C1CCCc2c1c1cccc(F)c1n2Cc1ccc(F)cc1`, the melting point lay within 177 to 178 °C. Then `Cc1ncnc(C)c1C(=O)O`, with 203 to 204 °C; and `CCCCCCOc1ccc(-n2cc(C(=O)O)cn2)cc1C#N`, with 164 to 165 °C; and `Cc1ccc(Nc2ncc(C=Cc3cccnc3)c3ccccc23)cc1Br`, with 91 °C. On to `CC1=C(C(=O)OC(C)(C)C)C(c2ccccc2Cl)c2c[nH]nc2N1` (stereo unspecified), for which the melting point is 207 °C.

In the case of `Oc1ccc2c(Cl)cc(-c3ccccc3)nc2c1`, the melting point lay in the range of 190 to 192 °C.

On to `Cc1cc(CO)ccc1NC(=O)N1CCN(c2ccc(NC(=O)Nc3ccccc3F)cc2)CC1`, for which the melting point is 229 to 230 °C. Then `CCOCC(C)Oc1ccc(COc2cnn(C(C)(C)C)c(=O)c2Cl)cc1` (stereo unspecified), with 72.3 to 73.1 °C. Then `Cc1ccc(C(=O)NC(NC(=NC#N)Nc2ccc(Cl)nc2)C(C)(Cl)Cl)cc1` (stereo unspecified), with 198 to 200 °C; and `COc1ccc(-c2nc(C(=O)N(C)C)c3c4ccc(Cl)cc4n(C)c3n2)cn1`, with 267 to 268 °C. Compound `CN1CCN(c2ccc(C3CCC4(CCC4c4ccccc4)C(=O)N3c3ccccc3)cc2)CC1` (stereo unspecified) returned a melting point of 166 to 168 °C. Then `Cn1c(Sc2cc(C(F)(F)F)ccc2C(=O)O)n[nH]c1=O`, with 229 °C; and `O=C(c1ccccc1)c1cnn2c(-c3cccc(NC(=O)C4CC4)c3)ccnc12`, with 210 to 212 °C; and `O=C(Nc1ccc2cc(CN3CCCC3)ccc2c1)N1CCC(c2ccc(F)cc2)CC1`, with 209 to 211 °C.
